Measured values from patent US20210052616A1, “ANTHRACYCLINE ENCAPSULATED WITH A POLYSACCHARIDE FOR USE IN THE TREATMENT OF TUMOURS” (NANOVELOS S.A, priority 2018, published 2021).

Assays:
Assay type in all cases: cell-based
Settings in all cases: 24 h
A549 = test: MTT cytotoxicity test, A549
Excerpt: (§1) In this test, […] present in the cells converts the soluble tetrazolium salt (3-4,5-dimethylthiazol-2-yl)-2,5-diphenyltetrazolium bromide) into a reduced form. The reaction yields water-insoluble purple crystalline formazan. The number of crystals formed depends on the enzyme activity so that it is directly proportional to the number of viable cells in the sample. Spectrophotometric measurement requires the use of an organic solvent to dissolve the crystals obtained (isopropanol). The change in colour intensity is measured by spectrophotometry at 570 nm wavelength. The test was performed for a number of dilutions (9) of nanoparticle solutions containing the tested anthracycline. The baseline concentration of nanoparticles for MTT tests was 2.5 mg of nanoparticles/ml. […] The study was also performed for drug-free nanoparticles (the carrier itself was obtained similarly to the nanoparticles with the drug). Cells not exposed to toxic substances were used as a control for toxicity studies.
(§2) After reaching 85-90% confluence, the cells were trypsinised using a 0.25% trypsin solution. The cells were then centrifuged (1200 rpm, 5 min.) and suspended in a culture medium suitable for a particular cell line. […] The cells were plated at a concentration of 1000 cells/100 μl of medium per culture well (96-well plates). The prepared plates were incubated (37° C./5% CO2/22 h to 26 h). Subsequently, the culture medium was replaced with a fresh one (100 μl) containing the appropriate concentration of the tested nanoparticles and set aside for 24 h (37° C./5% CO2). After the lapse of the test time, the medium was removed and replaced with 50 μl of an MTT reagent solution at a concentration of 1 mg/ml. The plate was incubated for 2 hours (37° C./5% CO2). Subsequently, the MTT solution was removed, and 100 μl of isopropanol was added. […] The mean value of absorbance read OD570 of the cells not exposed to a toxic agent (control) should be above 0.7 [see literature item 206].
(§3) A decrease in the number of viable cells causes a decrease in metabolic activity in the sample. This reduction directly correlates with the amount of blue and purple formazan formed, monitored basing on the optical density at 570 nm. The following equation (C.1) is used to calculate viability reduction compared to control:
(§4) where: • OD570e is the mean value of the measured absorbance of the test samples; • OD570b is the mean value of the measured absorbance of the control.
(§5) The results obtained were statistically analysed using the Dixon Q test.

AU565 = test: MTT cytotoxicity test, AU565
Excerpt: as §1, §2, §3, §4, §5

ACHN = test: MTT cytotoxicity test, ACHN
Excerpt: as §1, §2, §3, §4, §5

OVCAR-3 = test: MTT cytotoxicity test, OVCAR-3
Excerpt: as §1, §2, §3, §4, §5

COLO 205 = test: MTT cytotoxicity test, COLO 205
Excerpt: as §1, §2, §3, §4, §5

PANC-1 = test: MTT cytotoxicity test, PANC-1
Excerpt: as §1, §2, §3, §4, §5

A2780 = test: MTT cytotoxicity test, A2780
Excerpt: as §1, §2, §3, §4, §5

MCF-7 = test: MTT cytotoxicity test, MCF-7
Excerpt: as §1, §2, §3, §4, §5

COc1cccc2c1C(=O)c1c(O)c3c(c(O)c1C2=O)C[C@@](O)(C(=O)CO)C[C@@H]3O[C@H]1C[C@H](N)[C@@H](O)[C@H](C)O1 [Epi, epirubicin]
Average viability (A549; A549, 1.25E+04 ng/ml NPs (pure drug equimolar)): 95.631%
Average viability (A549; A549, 1.25E+05 ng/ml NPs (pure drug equimolar)): 83.913%
Average viability (A549; A549, 1.25E+06 ng/ml NPs (pure drug equimolar)): 29.508%
Average viability (A549; A549, 2.50E+04 ng/ml NPs (pure drug equimolar)): 88.608%
Average viability (A549; A549, 2.50E+05 ng/ml NPs (pure drug equimolar)): 75.153%
Average viability (A549; A549, 2.50E+06 ng/ml NPs (pure drug equimolar)): 23.423%
Average viability (A549; A549, 5.00E+04 ng/ml NPs (pure drug equimolar)): 74.693%
Average viability (AU565; AU565, 1.25E+04 ng/ml NPs (pure drug equimolar)): 66.48%
Average viability (AU565; AU565, 1.25E+05 ng/ml NPs (pure drug equimolar)): 48.38%
Average viability (AU565; AU565, 2.50E+04 ng/ml NPs (pure drug equimolar)): 66.439%
Average viability (AU565; AU565, 2.50E+05 ng/ml NPs (pure drug equimolar)): 29.222%
Average viability (AU565; AU565, 2.50E+06 ng/ml NPs (pure drug equimolar)): 1.822%
Average viability (AU565; AU565, 5.00E+03 ng/ml NPs (pure drug equimolar)): 84.738%
Average viability (AU565; AU565, 5.00E+04 ng/ml NPs (pure drug equimolar)): 48.052%
Average viability (AU565; AU565, 5.00E+05 ng/ml NPs (pure drug equimolar)): 11.723%
Average viability (ACHN; 1.25E+04 ng/ml NPs (pure drug equimolar)): 65.301%
Average viability (ACHN; 1.25E+05 ng/ml NPs (pure drug equimolar)): 63.237%
Average viability (ACHN; 1.25E+06 ng/ml NPs (pure drug equimolar)): 46.66%
Average viability (ACHN; 2.50E+04 ng/ml NPs (pure drug equimolar)): 63.713%
Average viability (ACHN; 2.50E+05 ng/ml NPs (pure drug equimolar)): 60.112%
Average viability (ACHN; 2.50E+06 ng/ml NPs (pure drug equimolar)): 32.352%
Average viability (ACHN; 5.00E+03 ng/ml NPs (pure drug equimolar)): 81.178%
Average viability (ACHN; 5.00E+04 ng/ml NPs (pure drug equimolar)): 59.828%
Average viability (ACHN; 5.00E+05 ng/ml NPs (pure drug equimolar)): 50.916%
Average viability (OVCAR-3; OVCAR3, 1.25E+05 ng/ml NPs (pure drug equimolar)): 91.668%
Average viability (OVCAR-3; OVCAR3, 1.25E+06 ng/ml NPs (pure drug equimolar)): 58.803%
Average viability (OVCAR-3; OVCAR3, 2.50E+04 ng/ml NPs (pure drug equimolar)): 99.208%
Average viability (OVCAR-3; OVCAR3, 2.50E+05 ng/ml NPs (pure drug equimolar)): 88.222%
Average viability (OVCAR-3; OVCAR3, 2.50E+06 ng/ml NPs (pure drug equimolar)): 33.266%
Average viability (OVCAR-3; OVCAR3, 5.00E+04 ng/ml NPs (pure drug equimolar)): 92.151%
Average viability (OVCAR-3; OVCAR3, 5.00E+05 ng/ml NPs (pure drug equimolar)): 75.986%
Average viability (COLO 205; Colo205, 1.25E+04 ng/ml NPs (pure drug equimolar)): 63.431%
Average viability (COLO 205; Colo205, 1.25E+05 ng/ml NPs (pure drug equimolar)): 55.748%
Average viability (COLO 205; Colo205, 1.25E+06 ng/ml NPs (pure drug equimolar)): 5.063%
Average viability (COLO 205; Colo205, 2.50E+04 ng/ml NPs (pure drug equimolar)): 66.212%
Average viability (COLO 205; Colo205, 2.50E+05 ng/ml NPs (pure drug equimolar)): 49.549%
Average viability (COLO 205; Colo205, 2.50E+06 ng/ml NPs (pure drug equimolar)): 2.239%
Average viability (COLO 205; Colo205, 5.00E+03 ng/ml NPs (pure drug equimolar)): 83.936%
Average viability (COLO 205; Colo205, 5.00E+04 ng/ml NPs (pure drug equimolar)): 61.427%
Average viability (COLO 205; Colo205, 5.00E+05 ng/ml NPs (pure drug equimolar)): 23.946%
Average viability (PANC-1; PANC1, 1.25E+04 ng/ml NPs (pure drug equimolar)): 94.813%
Average viability (PANC-1; PANC1, 1.25E+05 ng/ml NPs (pure drug equimolar)): 82.872%
Average viability (PANC-1; PANC1, 1.25E+06 ng/ml NPs (pure drug equimolar)): 27.965%
Average viability (PANC-1; PANC1, 2.50E+04 ng/ml NPs (pure drug equimolar)): 99.155%
Average viability (PANC-1; PANC1, 2.50E+05 ng/ml NPs (pure drug equimolar)): 79.499%
Average viability (PANC-1; PANC1, 2.50E+06 ng/ml NPs (pure drug equimolar)): 5.339%
Average viability (PANC-1; PANC1, 5.00E+03 ng/ml NPs (pure drug equimolar)): 97.954%
Average viability (PANC-1; PANC1, 5.00E+05 ng/ml NPs (pure drug equimolar)): 54.929%
Average viability (A2780; A2780, 1.25E+04 ng/ml NPs (pure drug equimolar)): 90.784%
Average viability (A2780; A2780, 1.25E+05 ng/ml NPs (pure drug equimolar)): 69.996%
Average viability (A2780; A2780, 1.25E+06 ng/ml NPs (pure drug equimolar)): 14.869%
Average viability (A2780; A2780, 2.50E+04 ng/ml NPs (pure drug equimolar)): 89.24%
Average viability (A2780; A2780, 2.50E+05 ng/ml NPs (pure drug equimolar)): 58.252%
Average viability (A2780; A2780, 2.50E+06 ng/ml NPs (pure drug equimolar)): 3.102%
Average viability (A2780; A2780, 5.00E+03 ng/ml NPs (pure drug equimolar)): 95.203%
Average viability (A2780; A2780, 5.00E+04 ng/ml NPs (pure drug equimolar)): 83.629%
Average viability (A2780; A2780, 5.00E+05 ng/ml NPs (pure drug equimolar)): 41.752%
Average viability (MCF-7; MCF-7, 1.25E+04 ng/ml NPs (pure drug equimolar)): 88.51%
Average viability (MCF-7; MCF-7, 1.25E+05 ng/ml NPs (pure drug equimolar)): 46.97%
Average viability (MCF-7; MCF-7, 1.25E+06 ng/ml NPs (pure drug equimolar)): 5.9%
Average viability (MCF-7; MCF-7, 2.50E+04 ng/ml NPs (pure drug equimolar)): 64.7%
Average viability (MCF-7; MCF-7, 2.50E+05 ng/ml NPs (pure drug equimolar)): 41.35%
Average viability (MCF-7; MCF-7, 2.50E+06 ng/ml NPs (pure drug equimolar)): 1.68%
Average viability (MCF-7; MCF-7, 5.00E+03 ng/ml NPs (pure drug equimolar)): 97.78%
Average viability (MCF-7; MCF-7, 5.00E+04 ng/ml NPs (pure drug equimolar)): 56.01%
Average viability (MCF-7; MCF-7, 5.00E+05 ng/ml NPs (pure drug equimolar)): 31.11%
